In ChEMBL document CHEMBL1201862, “PubChem BioAssay data set” (2004):
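Compound exposure: 48 hours, 5 concentrations, 96-well plates. The concentration for 50% growth inhibition is given as GI50.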 Calls of active or inactive are those of the source. Rule as the data show it: active = GI50 up to about 1.1 µM and inactive = higher.

How the values were obtained:
Test in all cases: NCI tumour cell line growth inhibition, 48 h
HT-29 = test system: HT-29
SK-OV-3 = test system: SK-OV-3
SF-295 = test system: SF-295
T47D = test system: T47D
BT-549 = test system: BT-549
RPMI-8226 = test system: RPMI-8226
NCI/ADR-RES = test system: NCI/ADR-RES
SNB-19 = test system: SNB-19
HCC 2998 = test system: HCC 2998
SN12C = test system: SN12C
RXF 393 = test system: RXF 393
OVCAR-4 = test system: OVCAR-4
MDA-MB-435 = test system: MDA-MB-435
A549 = test system: A549
Malme-3M = test system: Malme-3M
SR = test system: SR
SK-MEL-5 = test system: SK-MEL-5
SF-539 = test system: SF-539
SK-MEL-28 = test system: SK-MEL-28
MCF7 = test system: MCF7
OVCAR-8 = test system: OVCAR-8
SW-620 = test system: SW-620
M14 = test system: M14
CAKI-1 = test system: CAKI-1
MDA-N = test system: MDA-N
HOP-92 = test system: HOP-92
NCI-H460 = test system: NCI-H460
HCT-15 = test system: HCT-15
NCI-H522 = test system: NCI-H522
OVCAR-5 = test system: OVCAR-5
KM12 = test system: KM12
IGROV-1 = test system: IGROV-1
SK-MEL-2 = test system: SK-MEL-2
OVCAR-3 = test system: OVCAR-3
HCT-116 = test system: HCT-116
UO-31 = test system: UO-31
MOLT-4 = test system: MOLT-4
K562 = test system: K562
786-0 = test system: 786-0
MDA-MB-231 = test system: MDA-MB-231
ACHN = test system: ACHN
A498 = test system: A498
SNB-75 = test system: SNB-75
HOP-62 = test system: HOP-62
UACC-257 = test system: UACC-257
CCRF-CEM = test system: CCRF-CEM
TK-10 = test system: TK-10
SF-268 = test system: SF-268
U-251 = test system: U-251
COLO 205 = test system: COLO 205
NCI-H226 = test system: NCI-H226
UACC-62 = test system: UACC-62
PC-3 = test system: PC-3
EKVX = test system: EKVX
NCI-H23 = test system: NCI-H23
LOX IMVI = test system: LOX IMVI
DU-145 = test system: DU-145
HL-60 = test system: HL-60

SMILES: O=C1NCC(NC(=O)C(F)(F)F)c2c(Br)sc(Br)c21 (configuration not stated)
- GI50 (HT-29): > 100 µM (inactive)
- GI50 (SK-OV-3): > 100 µM (inactive)
- GI50 (SF-295): > 100 µM (inactive)
- GI50 (T47D): > 100 µM (inactive)
- GI50 (BT-549): > 100 µM (inactive)
- GI50 (RPMI-8226): > 100 µM (inactive)
- GI50 (NCI/ADR-RES): > 100 µM (inactive)
- GI50 (SNB-19): > 100 µM (inactive)
- GI50 (HCC 2998): > 100 µM (inactive)
- GI50 (SN12C): > 100 µM (inactive)
- GI50 (RXF 393): > 100 µM (inactive)
- GI50 (OVCAR-4): > 100 µM (inactive)
- GI50 (MDA-MB-435): > 100 µM (inactive)
- GI50 (A549): > 100 µM (inactive)
- GI50 (Malme-3M): > 100 µM (inactive)
- GI50 (SR): > 100 µM (inactive)
- GI50 (SK-MEL-5): > 100 µM (inactive)
- GI50 (SF-539): > 100 µM (inactive)
- GI50 (SK-MEL-28): > 100 µM (inactive)
- GI50 (MCF7): > 100 µM (inactive)
- GI50 (OVCAR-8): > 100 µM (inactive)
- GI50 (SW-620): > 100 µM (inactive)
- GI50 (M14): > 100 µM (inactive)
- GI50 (CAKI-1): > 100 µM (inactive)
- GI50 (MDA-N): > 100 µM (inactive)
- GI50 (HOP-92): > 100 µM (inactive)
- GI50 (NCI-H460): > 100 µM (inactive)
- GI50 (HCT-15): > 100 µM
- GI50 (NCI-H522): > 100 µM (inactive)
- GI50 (OVCAR-5): > 100 µM (inactive)
- GI50 (KM12): > 100 µM (inactive)
- GI50 (IGROV-1): > 100 µM (inactive)
- GI50 (SK-MEL-2): > 100 µM (inactive)
- GI50 (OVCAR-3): > 100 µM (inactive)
- GI50 (HCT-116): > 100 µM (inactive)
- GI50 (UO-31): > 100 µM (inactive)
- GI50 (MOLT-4): > 100 µM (inactive)
- GI50 (K562): > 100 µM (inactive)
- GI50 (786-0): > 100 µM (inactive)
- GI50 (MDA-MB-231): > 100 µM (inactive)
- GI50 (ACHN): > 100 µM (inactive)
- GI50 (A498): > 100 µM (inactive)
- GI50 (SNB-75): 24.3 µM (inactive)
- GI50 (HOP-62): > 100 µM (inactive)
- GI50 (UACC-257): > 100 µM (inactive)
- GI50 (CCRF-CEM): > 100 µM (inactive)
- GI50 (TK-10): > 100 µM (inactive)
- GI50 (SF-268): > 100 µM (inactive)
- GI50 (U-251): > 100 µM (inactive)
- GI50 (COLO 205): > 100 µM (inactive)
- GI50 (NCI-H226): > 100 µM (inactive)
- GI50 (UACC-62): > 100 µM (inactive)
- GI50 (PC-3): > 100 µM (inactive)
- GI50 (EKVX): > 100 µM (inactive)
- GI50 (NCI-H23): > 100 µM (inactive)
- GI50 (LOX IMVI): > 100 µM (inactive)
- GI50 (DU-145): > 100 µM (inactive)

SMILES: COc1cc2c(cc1OC)C1c3ccccc3CCN1CCC2.[O-][Cl+3]([O-])([O-])O (configuration not stated)
- GI50 (HT-29): 69.7 µM (inactive)
- GI50 (SK-OV-3): > 100 µM (inactive)
- GI50 (SF-295): > 100 µM (inactive)
- GI50 (T47D): > 100 µM (inactive)
- GI50 (BT-549): 23.6 µM (inactive)
- GI50 (RPMI-8226): 63.7 µM (inactive)
- GI50 (NCI/ADR-RES): > 100 µM (inactive)
- GI50 (SNB-19): > 100 µM (inactive)
- GI50 (HCC 2998): > 100 µM (inactive)
- GI50 (SN12C): > 100 µM (inactive)
- GI50 (HL-60): 68.5 µM (inactive)
- GI50 (MDA-MB-435): 83.6 µM (inactive)
- GI50 (A549): > 100 µM (inactive)
- GI50 (Malme-3M): > 100 µM (inactive)
- GI50 (SR): > 100 µM (inactive)
- GI50 (SK-MEL-5): > 100 µM (inactive)
- GI50 (SF-539): > 100 µM (inactive)
- GI50 (SK-MEL-28): > 100 µM (inactive)
- GI50 (MCF7): > 100 µM (inactive)
- GI50 (OVCAR-8): > 100 µM (inactive)
- GI50 (SW-620): > 100 µM (inactive)
- GI50 (M14): > 100 µM (inactive)
- GI50 (CAKI-1): > 100 µM (inactive)
- GI50 (MDA-N): > 100 µM (inactive)
- GI50 (HCT-15): > 100 µM
- GI50 (OVCAR-5): > 100 µM (inactive)
- GI50 (KM12): > 100 µM (inactive)
- GI50 (IGROV-1): > 100 µM (inactive)
- GI50 (OVCAR-3): > 100 µM (inactive)
- GI50 (HCT-116): 74.3 µM (inactive)
- GI50 (UO-31): 48.4 µM (inactive)
- GI50 (MOLT-4): > 100 µM (inactive)
- GI50 (K562): 76 µM (inactive)
- GI50 (786-0): > 100 µM (inactive)
- GI50 (MDA-MB-231): > 100 µM (inactive)
- GI50 (ACHN): > 100 µM (inactive)
- GI50 (SNB-75): > 100 µM (inactive)
- GI50 (HOP-62): > 100 µM (inactive)
- GI50 (UACC-257): > 100 µM (inactive)
- GI50 (CCRF-CEM): > 100 µM (inactive)
- GI50 (TK-10): > 100 µM (inactive)
- GI50 (SF-268): > 100 µM (inactive)
- GI50 (U-251): > 100 µM (inactive)
- GI50 (COLO 205): > 100 µM (inactive)
- GI50 (NCI-H226): > 100 µM (inactive)
- GI50 (UACC-62): > 100 µM (inactive)
- GI50 (PC-3): > 100 µM (inactive)
- GI50 (EKVX): > 100 µM (inactive)
- GI50 (LOX IMVI): > 100 µM (inactive)
- GI50 (DU-145): > 100 µM (inactive)
